Target: T1, KRAS G12C 1-169, his-tagged protein, GDP-loaded (Homo sapiens, UniProt P01116, G12C)
T1 construct: KRAS G12C 1-169, his-tagged protein, GDP-loaded
Test: Biochemical assay: covalent binding to KRAS G12C, measured by mass spectrometry
Description: Test compounds were prepared as 10 mM stock solutions in DMSO (Fisher cat#BP-231-100). KRAS G12C 1-169, his-tagged protein, GDP-loaded was diluted to 2 μm in buffer (20 mM Hepes, 150 mM NaCl, 1 mM MgCl2). Compounds were tested for activity as follows:
Compounds were diluted to 50× final test concentration in DMSO in 96-well storage plates. Compound stock solutions were vortexed before use and observed carefully for any sign of precipitation. Dilutions were as follow: • For 100 μM final compound concentration, compounds were diluted to 5000 μM (5 μl 10 mM compound stock+5 μl DMSO and mixed well by pipetting. • For 30 μM final compound concentration, compounds were diluted to 1500 μM (3 μl 10 mM compound stock+17 μl DMSO) and mixed well by pipetting. • For […] final compound concentration, compounds were diluted to 500 μM (2 μl 10 mM compound stock+38 μl DMSO) and mixed well by pipetting. 49 μl of the stock protein solution was added to each well of a 96-well PCR plate (Fisher cat#1423027). 1 μl of the diluted 50× compounds were added to appropriate wells in the PCR plate using 12-channel pipettor. Reactions were mixed carefully and thoroughly by pipetting up/down with a 200 μl multi-channel pipettor. The plate was sealed well with aluminum plate seal, and stored in a drawer at room temperature for 2 hrs or 24 hrs. 5 μl of 2% formic acid (Fisher cat#A117) in DI H2O was then added to each well followed by mixing with a pipette. The plate was then resealed with aluminum seal and stored on dry ice until analyzed as described below.
The above described assays were analyzed by mass spectrometry according to the following procedure:
The MS instrument is set to positive polarity, 2 GHz resolution, and low mass (1700) mode and allowed to equilibrate for 30 minutes. The instrument is then calibrated, switched to acquisition mode and the appropriate method loaded.
After another 30 minute equilibration time, a blank batch (i.e., buffer) is run to ensure equipment is operating properly. The samples are thawed at 37° C. for 10 minutes, briefly centrifuged, and transfer to the bench top. Wells A1 and H12 are spiked with 1 uL 500 uM internal standard peptide, and the plates centrifuged at 2000×g for 5 minutes. The method is then run and masses of each individual well recorded.
The masses (for which integration data is desired) for each well are pasted into the platemap and exported from the analysis. Masses for the internal standards are exported as well. The data at 50 ppm is extracted for the +19 charge state, and identity of well A1 is assigned using the internal standard spike and integrated. Peak data is exported as a TOF list and the above steps are repeated individually, for the +20, 21, 22, 23, 24, and charge states.

[1] = Binding activity determined at 24 hrs, Table 8a
[2] = Binding activity determined at 2 hrs, Table 8b

T1 sequence (P01116 1-169 isoform P01116-2 G12C): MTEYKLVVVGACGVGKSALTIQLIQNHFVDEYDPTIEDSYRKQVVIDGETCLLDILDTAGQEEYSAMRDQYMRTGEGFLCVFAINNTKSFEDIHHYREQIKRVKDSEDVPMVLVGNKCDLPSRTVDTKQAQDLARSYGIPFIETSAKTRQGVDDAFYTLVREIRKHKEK

`C=CC(=O)N1CC(N2CCN(C(=O)NCc3cc(Br)c(Cl)cc3O)CC2)C1` [Compound V-66, 4-(1-acryloylazetidin-3-yl)-N-(5-bromo-4-chloro-2-hydroxybenzyl) piperazine-1-carboxamide] was tested. Which Binding % (Binding activity determined at 2 hrs, Table 7b) did it give?
The Binding % was “+ (+ indicates binding activity from 5% to 20%)”.

Which Binding % (Binding activity determined at 24 hrs, Table 7a) does the source give for `C=CC(=O)N1CCC(N2CCN(C(=O)CNc3cc(Cl)c(C)cc3O)CC2)C1` (centres unmarked) [Compound V-8, 1-(3-(4-(2-(5-chloro-2-hydroxy-4-methylphenyl-amino)acetyl)piperazin-1-yl)pyrrolidin-1-yl)prop-2-en-1-one] here?
The Binding % was “++ (++ indicates binding activity greater than 15% and up to 25%)”.

How did the Binding % [1] turn out when `C=CC(=O)N1CCN(C(=O)c2cc(-c3ccccc3Cl)c(Cl)[nH]2)CC1` [VI-30, 1-(4-(5-chloro-4-(2-chlorophenyl)-1H-pyrrole-2-carbonyl)piperazin-1-yl)prop-2-en-1-one] was run?
Its Binding % is “++ (++ indicates binding activity greater than 10% and up to 20%)”.

With `C=CC(=O)N1CCN(C(=O)c2cc(-c3cc(Cl)ccc3Cl)c(Cl)cc2OC)CC1` [VI-5, 1-(4-(2′,5′,6-trichloro-4-methoxybiphenyl-carbonyl)piperazin-1-yl)prop-2-en-1-one] as the molecule, how does the Binding % [1] read?
Its Binding % is “++++ (++++ indicates binding activity greater than 30%)”.

Which Binding % [1] does the source give for `C=CC(=O)N1CCN(C(=O)c2nc(-c3ccccc3Cl)c(C)s2)CC1` [VI-22, 1-(4-(4-(2-chlorophenyl)-5-methylthiazole-2-carbonyl)piperazin-1-yl)prop-2-en-1-one] here?
The Binding % was “+ (+ indicates binding activity from 5% to 10%)”.

With `C=CC(=O)N1CC(NC(=O)c2cc(-c3ccccc3Cl)[nH]n2)C1` [VI-14, N-(1-acryloylazetidin-3-yl)-3-(2-chlorophenyl)-1H-pyrazole-5-carboxamide] as the molecule, how does the Binding % [1] read?
The Binding % was “+ (+ indicates binding activity from 5% to 10%)”.

For `C=CC(=O)N1CCN(C(=O)c2cc(-c3cccs3)[nH]n2)CC1` [VI-16, 1-(4-(5-(thiophen-2-yl)-1H-pyrazole-3-carbonyl)piperazin-1-yl)prop-2-en-1-one], which Binding % [1] is on record?
Its Binding % is “+ (+ indicates binding activity from 5% to 10%)”.

For `C=CC(=O)N1CCN(C(=O)c2cc(-c3cc(Cl)ccc3Cl)c(Cl)cc2O)CC1C#N` (centres unmarked) [VI-38, 1-acryloyl-4-(2′,5′,6-trichloro-4-hydroxybiphenyl-carbonyl)piperazine-2-carbonitrile], which Binding % [2] is on record?
The Binding % was “++ (++ indicates binding activity greater than 20%)”.

Which Binding % [1] does the source give for `C=CC(=O)NC1CN(C(=O)c2cc(-c3ccccc3Cl)c(Cl)cc2O)C1` [VI-13, N-(1-(2′,6-dichloro-4-hydroxybiphenyl-carbonyl)azetidin-3-yl)acrylamide] here?
The Binding % was “+ (+ indicates binding activity from 5% to 10%)”.

Which Binding % [1] does the source give for `C=CC(=O)N1CCN(C(=O)c2cc(O)cc(-c3ccccc3Cl)c2)CC1` [VI-25, 1-(4-(2′-Chloro-5-hydroxy-[1,1′-biphenyl]-3-carbonyl)piperazin-1-yl)prop-2-en-1-one] here?
Its Binding % is “+++ (+++ indicates binding activity greater than 20% and up to 30%)”.

How did the Binding % [1] turn out when `C=CC(=O)N1CCN(C(=O)c2cc(I)c(Cl)cc2OC)CC1` [VI-2, 1-(4-(4-chloro-5-iodo-2-methoxybenzoyl)piperazin-1-yl)prop-2-en-1-one] was run?
The Binding % was “++ (++ indicates binding activity greater than 10% and up to 20%)”.

`C=CC(=O)N1CCN(C(=O)c2cc(-c3ccccc3Cl)c(Cl)cc2O)CC1` [VI-3, 1-(4-(2′,6-Dichloro-4-hydroxy-[1,1′-biphenyl]-3-carbonyl)piperazin-1-yl)prop-2-en-1-one] was tested. Which Binding % [1] did it give?
The Binding % was “++++ (++++ indicates binding activity greater than 30%)”.

For `C=CC(=O)N1CCN(C(=O)c2cc(-c3cc(F)ccc3Cl)c(Cl)cc2OC)CC1` [VI-4, 1-(4-(2′,6-dichloro-5′-fluoro-4-methoxybiphenyl-carbonyl)piperazin-1-yl)prop-2-en-1-one], which Binding % [1] is on record?
Its Binding % is “++ (++ indicates binding activity greater than 10% and up to 20%)”.

For `C=CC(=O)N1CCN(C(=O)c2cc(Cl)c(-c3cccc(Cl)c3)cc2O)CC1` [VI-43, 1-(4-(2,3′-dichloro-5-hydroxybiphenyl-carbonyl)piperazin-1-yl)prop-2-en-1-one], which Binding % [2] is on record?
The Binding % was “+ (+ indicates binding activity from 5% to 20%)”.

For `C=CC(=O)N1CCN(C(=O)c2cc(-c3cc(Cl)ccc3Cl)c(Cl)cc2O)CC1` [VI-17, 1-(4-(2′,5′,6-trichloro-4-hydroxybiphenyl-carbonyl)piperazin-1-yl)prop-2-en-1-one], which Binding % [1] is on record?
The Binding % was “++++ (++++ indicates binding activity greater than 30%)”.

Which Binding % [1] does the source give for `C=CC(=O)N1CCN(C(=O)c2ccc(Cl)c(-c3ccccc3Cl)c2)CC1` [VI-12, 1-(4-(2′,6-dichlorobiphenyl-carbonyl)piperazin-1-yl)prop-2-en-1-one] here?
Its Binding % is “+++ (+++ indicates binding activity greater than 20% and up to 30%)”.

How did the Binding % [1] turn out when `C=CC(=O)N1CCN(C(=O)c2cn(-c3cc(Cl)ccc3Cl)c(=O)cc2O)CC1` [VI-28, 5-(4-acryloylpiperazine-1-carbonyl)-1-(2,5-dichlorophenyl)-4-hydroxypyridin-2(1H)-one] was run?
Its Binding % is “++ (++ indicates binding activity greater than 10% and up to 20%)”.

With `C=CC(=O)N1CCN(C(=O)c2ccc(Cl)c(Cl)c2)CC1` [VI-36, 1-(4-(3,4-dichlorobenzoyl)piperazin-1-yl)prop-2-en-1-one] as the molecule, how does the Binding % [1] read?
Its Binding % is “+ (+ indicates binding activity from 5% to 10%)”.

`C=CC(=O)N1CCN(C(=O)c2cc(-c3ccccc3)c(Cl)cc2O)CC1` [VI-29, 1-(4-(6-chloro-4-hydroxybiphenyl-carbonyl)piperazin-1-yl)prop-2-en-1-one] was tested. Which Binding % [1] did it give?
Its Binding % is “+++ (+++ indicates binding activity greater than 20% and up to 30%)”.

With `C=CC(=O)N1CCN(C(=O)c2cc(Cl)c(Cl)cc2O)CC1` [VI-8, 1-(4-(4,5-dichloro-2-hydroxybenzoyl)piperazin-1-yl)prop-2-en-1-one] as the molecule, how does the Binding % [1] read?
Its Binding % is “+ (+ indicates binding activity from 5% to 10%)”.

Which Binding % [1] does the source give for `C=CC(=O)N1CCN(C(=O)c2cc(O)c(Cl)c(-c3ccccc3Cl)c2)CC1` [VI-27] here?
Its Binding % is “+++ (+++ indicates binding activity greater than 20% and up to 30%)”.

With `C=CC(=O)N1CCN(C(=O)c2cc(-c3ccccc3Cl)n[nH]2)CC1` [VI-11, 1-(4-(3-(2-chlorophenyl)-1H-pyrazole-5-carbonyl)piperazin-1-yl)prop-2-en-1-one] as the molecule, how does the Binding % [1] read?
Its Binding % is “+ (+ indicates binding activity from 5% to 10%)”.

How did the Binding % [1] turn out when `C=CC(=O)N1CCN(C(=O)c2nc(-c3ccccc3Cl)cs2)CC1` [VI-19, 1-(4-(4-(2-chlorophenyl)thiazole-2-carbonyl)piperazin-1-yl)prop-2-en-1-one] was run?
The Binding % was “+ (+ indicates binding activity from 5% to 10%)”.

Which Binding % [1] does the source give for `C=CC(=O)N1CCN(C(=O)c2cc(-c3cc(Cl)ccc3Cl)c[nH]2)CC1` [VI-31, 1-(4-(4-(2,5-dichlorophenyl)-1H-pyrrole-2-carbonyl)piperazin-1-yl)prop-2-en-1-one] here?
Its Binding % is “+ (+ indicates binding activity from 5% to 10%)”.

With `C=CC(=O)N1CCN(C(=O)c2nc(-c3ccccc3Cl)sc2Cl)CC1` [VI-20, 1-(4-(5-chloro-2-(2-chlorophenyl)thiazole-4-carbonyl)piperazin-1-yl)prop-2-en-1-one] as the molecule, how does the Binding % [1] read?
Its Binding % is “+ (+ indicates binding activity from 5% to 10%)”.

How did the Binding % [1] turn out when `CN(C)C/C=C/C(=O)N1CCN(C(=O)c2cc(-c3ccccc3Cl)c(Cl)cc2O)CC1` [VI-24, (E)-1-(4-(2′,6-dichloro-4-hydroxy-[1,1′-biphenyl]-3-carbonyl)piperazin-1-yl)-4-(dimethylamino)but-2-en-1-one] was run?
The Binding % was “++++ (++++ indicates binding activity greater than 30%)”.

For `C=CC(=O)N1CCN(C(=O)c2cc(-c3ccccc3Cl)c(C)[nH]2)CC1` [VI-23, 1-(4-(4-(2-chlorophenyl)-5-methyl-1H-pyrrole-2-carbonyl)piperazin-1-yl)prop-2-en-1-one], which Binding % [1] is on record?
Its Binding % is “+++ (+++ indicates binding activity greater than 20% and up to 30%)”.

Which Binding % [1] does the source give for `COc1cc(Cl)c(-c2ccccc2Cl)cc1C(=O)N1CCN(C(=O)/C=C/CN(C)C)CC1` [VI-10, (E)-1-(4-(2′,6-dichloro-4-methoxybiphenyl-carbonyl)piperazin-1-yl)-4-(dimethylamino)but-2-en-1-one] here?
The Binding % was “+ (+ indicates binding activity from 5% to 10%)”.

For `C=CC(=O)N1CCN(C(=O)c2cc(-c3ccccc3Cl)ccc2O)CC1` [VI-26, 1-(4-(2′-chloro-4-hydroxybiphenyl-carbonyl)piperazin-1-yl)prop-2-en-1-one], which Binding % [1] is on record?
The Binding % was “++ (++ indicates binding activity greater than 10% and up to 20%)”.
